# Patent US9623226B2, “Device for efficient delivery of compounds to or through the skin or biological barriers, using light-absorbing thin films” (Universidade de Coimbra, priority 2011, dated 2017)
# What was measured:
# [1] = In vitro transdermal delivery through minipig skin samples, passive versus active (photoacoustic device); format: in vitro ADME; conditions: extraction with dichloromethane and fluorescence, confirming fluorescence microscopy; high-impulse broadband pressure wave versus passive
# Procedure: Skin sections were cut from the back of the minipigs after they had been sacrificed. These skin sections were frozen and kept at −18° C. until use in in vitro tests. Before each in vitro test, the required amount of minipig skin was slowly brought to room temperature. All the tests were carried out at room temperature.
# The skin samples collected after the experiments were analyzed by microscopy to evaluate the penetration depth of the desired compounds, or followed an extraction procedure to evaluate their amounts under the skin. The evaluation of the penetration depth by fluorescence microscopy or by confocal microscopy requires tissue fixation. The first step in the fixation was immersion in paraformaldehyde (4% in aqueous solution) for at least 24 h. Next, the samples were transferred to a 25% sucrose solution for at least 48 h. […] The skin slices were collected in microscope slides and kept refrigerated until they were analyzed by fluorescence microscopy and confocal microscopy. […]
# In order to evaluate the quantities of the F2TPPMet delivered under the skin a specific method was developed. […] Fluorescence calibration curves of the pharmacological excipient delivered in the skin were performed in the extractor solvent to validate the methodology used. Finally, the mass delivered onto the skin is determined for each essay substituting its fluorescence in the calibration curve. […]
# skin of a minipig = assay: In vivo transdermal delivery on the back of minipigs, passive and active (photoacoustic device); conditions: device of Example 1, 12 laser shots at 355 nm, 10 mJ per pulse
# From the text: In vivo and in vitro tests employed four minipigs obtained from IMIDHA (Instituto Madrileño de Investigación y Desarrollo Rural, Agrario y Alimentario)—Aranjuez (Madrid). They were all females, aged 6-8 months, white with brown spots, average weight 56.8 kg (66.2, 57.1, 43.5, 60.6 kg). They were received at Estação Zootécnica Nacional, Vale de Santarém, where they were accommodated in individual boxes with 1.5 m^2, feed with a standard diet for pigs and water ad libidum, for an acclimation period of three weeks. The study was performed in accordance to the Portuguese ethical guidelines on a license granted by Dircção de Serviços de Saúde o Protecção Animal, ref. 0420/000/000/2007. Access to food was suspended 24 h hours before treatment. The backs of the animals were shaved 24 h prior to the in vivo application of the dermatological formulations. […]
# The skin samples collected after the experiments were analyzed by microscopy to evaluate the penetration depth of the desired compounds, or followed an extraction procedure to evaluate their amounts under the skin. The evaluation of the penetration depth by fluorescence microscopy or by confocal microscopy requires tissue fixation. […] The skin slices were collected in microscope slides and kept refrigerated until they were analyzed by fluorescence microscopy and confocal microscopy. […]
substance,measurement,setting,value
"5,10,15,20-tetrakis(2,6-fluoro-3-N-methylsulfamoylphenyl)porphyrin [F2TPPMet]","quantity of F2TPPMet delivered to the skin, active versus passive transdermal delivery",[1],increase in the quantity of F2TPPMet delivered to the skin
same,state of the stratum corneum after active transdermal delivery,skin of a minipig; 20 minutes incubation,stratum corneum remained intact
same,distribution in the skin by fluorescence microscopy after active transdermal delivery,"skin of a minipig; ca 1 cm^2, 20 minutes incubation",distributed over all the epidermis
